Consider two molecules from US7253282B2 (Hoffman-La Roche Inc., priority 2004, dated 2007).

The structures appear in SMILES notation.

In experiment [1] the target is T1, GST-LXRα-LBD (human LXR alpha, aa 164 to 447) (Homo sapiens, UniProt Q13133).
T1 construct: human LXR alpha (aa 164 to 447); made in house; host or cells: E. coli BL21(pLysS)
T1 sequence (Q13133 164-447): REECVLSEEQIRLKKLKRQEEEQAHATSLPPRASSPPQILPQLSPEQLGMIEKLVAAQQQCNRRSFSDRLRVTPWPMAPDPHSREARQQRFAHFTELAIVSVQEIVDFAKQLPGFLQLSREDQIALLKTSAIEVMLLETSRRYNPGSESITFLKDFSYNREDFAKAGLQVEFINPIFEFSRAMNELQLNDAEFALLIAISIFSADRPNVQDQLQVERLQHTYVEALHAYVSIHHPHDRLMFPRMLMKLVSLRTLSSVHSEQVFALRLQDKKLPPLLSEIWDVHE
The experiment is described as follows: Radioligand binding assay (SPA), LXR alpha. Conditions: GST-LXRα-LBD on SPA beads, read-out: LXRalpha Binding IC50. An excerpt:
(§1) Mammalian expression vectors were constructed to express full-length human LXR alpha and LXR beta. Bacterial expression vectors were constructed to produce glutathione-s-transferase (GST) fused to the ligand binding domains (LBD) of human LXR alpha (aa 164 to 447) and human LXR beta (aa 155 to 460). To accomplish this, the portions of the sequences encoding the LBDs were amplified from full-length clones by PCR and then subcloned into the plasmid vectors. Final clones were verified by DNA sequence analysis (Willy et al., Genes Dev. 1995, 9:1033-45; Song et al., Proc Natl Acad Sci USA. 1994, 91:10809-13).
(§2) Induction, expression, and purification of GST-LBD fusion proteins were performed in E. coli strain BL21(pLysS) cells by standard methods (Ref: Current Protocols in Molecular Biology, Wiley Press, edited by Ausubel et al).
(§3) LXR alpha and LXR beta receptor binding were assayed in buffer consisting of 50 mM HEPES, pH 7.4, 10 mM NaCl, 5 mM MgCl2. For each 96-well reaction, 500 ng of GST-LXRα-LBD or 700 ng of GST-LXR beta-LBD fusion proteins were bound to 80 μg or 40 μg SPA beads (Pharmacia Amersham) respectively, in a final volume of 50 μl by shaking. […] All binding assays were performed in 96-well plates and the amount of bound ligand was measured on a Packard TopCount using OptiPlates (Packard). Dose response curves were measured within a range of concentration from 10^−10 M to 10^−4 M.

The target of experiment [2] is T2, GST-LXR beta-LBD (human LXR beta, aa 155 to 460) (Homo sapiens, UniProt P55055).
T2 construct: human LXR beta (aa 155 to 460); made in house; host or cells: E. coli BL21(pLysS)
T2 sequence (P55055 155-460): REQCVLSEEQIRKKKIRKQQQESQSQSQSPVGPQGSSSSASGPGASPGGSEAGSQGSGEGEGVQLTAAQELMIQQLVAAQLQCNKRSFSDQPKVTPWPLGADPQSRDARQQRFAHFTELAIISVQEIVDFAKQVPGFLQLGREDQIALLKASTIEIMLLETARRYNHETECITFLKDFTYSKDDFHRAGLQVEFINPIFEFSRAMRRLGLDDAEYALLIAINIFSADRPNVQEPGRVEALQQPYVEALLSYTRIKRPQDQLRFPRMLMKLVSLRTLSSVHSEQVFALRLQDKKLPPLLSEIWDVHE
The experiment is described as follows: Radioligand binding assay (SPA), LXR beta. To be noted: GST-LXR beta-LBD on SPA beads, read-out: LXRbeta Binding IC50.
Excerpt: as §1, §2, §3

Turning to `O=S(=O)(c1ccccc1)N(CC(F)(F)F)[C@H]1CC[C@H](C(O)(C(F)(F)F)C(F)(F)F)CC1` [Example 1, trans N-(2,2,2-trifluoro-ethyl)-N-[4-(2,2,2-trifluoro-1-hydroxy-1-trifluoromethyl-ethyl)-cyclohexyl]-benzenesulfonamide], the IC50 in experiment [1] was found to be 0.02 µM; in experiment [2], 0.07 µM.
For `Cc1nn(C)c(Cl)c1S(=O)(=O)N(CC(F)(F)F)[C@H]1CC[C@H](C(O)(C(F)(F)F)C(F)(F)F)CC1` [Example 17], the values for the 50% inhibitory concentration (IC50) in experiment [1] and in experiment [2] were 1.5 µM and 1.4 µM, respectively.

A word on the IC50: it is the concentration at which inhibition is half-maximal.
